From ChEMBL document CHEMBL1201862, “PubChem BioAssay data set” (2004)
Calls of active or inactive are those of the source.

What was measured:
[1] = Luminescence Cell-Based Dose Response HTS to Identify Activators of Luciferase Translation or Activity in H4 […] Cells. [Related pubchem assays: 1829 (Project Summary), 1814 (Primary HTS)]; type: functional
[2] = reduction of Shn3 3'UTR firefly luciferase signal, dose response, Schnurri-3 inhibitor project, cell-based, Clone20 osteoblasts, cherry-pick, set 2 (AID 720490); type: functional;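 further: actives lower the luminescence signal as inhibitors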
[3] = biological target: T1, Replicative DNA helicase DnaB (Mycobacterium tuberculosis, UniProt P9WMR3); assay: DnaB intein splicing inhibitors, dose response, biochemical, cell-free fluorescence (AID 449749); type: functional
T1 sequence (P9WMR3 whole entry): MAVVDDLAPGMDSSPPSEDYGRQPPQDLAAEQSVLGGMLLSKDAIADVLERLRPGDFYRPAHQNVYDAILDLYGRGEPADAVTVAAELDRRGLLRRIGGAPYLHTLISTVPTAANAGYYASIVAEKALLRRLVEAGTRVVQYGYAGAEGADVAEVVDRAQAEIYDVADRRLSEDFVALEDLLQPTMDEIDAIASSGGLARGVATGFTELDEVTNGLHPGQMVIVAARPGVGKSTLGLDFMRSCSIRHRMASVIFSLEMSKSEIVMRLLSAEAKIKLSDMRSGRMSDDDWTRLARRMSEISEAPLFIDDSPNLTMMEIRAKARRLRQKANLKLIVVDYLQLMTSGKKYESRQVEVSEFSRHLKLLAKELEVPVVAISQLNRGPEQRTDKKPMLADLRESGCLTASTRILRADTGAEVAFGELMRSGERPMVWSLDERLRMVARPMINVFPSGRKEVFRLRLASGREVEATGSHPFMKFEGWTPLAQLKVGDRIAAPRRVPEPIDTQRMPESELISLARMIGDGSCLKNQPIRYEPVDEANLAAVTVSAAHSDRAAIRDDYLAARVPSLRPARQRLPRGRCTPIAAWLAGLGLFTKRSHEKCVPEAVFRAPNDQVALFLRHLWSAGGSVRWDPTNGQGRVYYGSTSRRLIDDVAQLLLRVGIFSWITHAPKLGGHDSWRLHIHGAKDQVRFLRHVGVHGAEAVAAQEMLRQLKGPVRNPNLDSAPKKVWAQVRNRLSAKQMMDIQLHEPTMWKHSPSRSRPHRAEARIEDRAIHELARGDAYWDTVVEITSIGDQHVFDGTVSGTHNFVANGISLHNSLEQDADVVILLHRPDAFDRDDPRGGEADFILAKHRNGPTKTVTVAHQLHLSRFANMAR

[4] = test system: CHO; assay: cytotoxicity in TLR9-MyD88 CHO cells, dose response, cytotoxicity control for TLR9-MyD88 binding inhibitor project, cell-based, luminescence (AID 588339); type: functional, hamster; conditions: Cricetulus griseus;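 further: CHO cells stably coexpressing TLR9 and MyD88 fusions from primary screen; compound exposure lasted 48 hours before viability readout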
[5] = biological target: T2, Protein RecA (Mycobacterium tuberculosis, UniProt P9WHJ3); assay: Fluorescence Cell-Free Homogeneous Dose Retest to Identify Inhibitors of RecA-Intein Splicing Activity. [Related pubchem assays (depositor defined):AID2097, AID2223, AID489010, AID492950]; type: functional
T2 sequence (P9WHJ3 whole entry): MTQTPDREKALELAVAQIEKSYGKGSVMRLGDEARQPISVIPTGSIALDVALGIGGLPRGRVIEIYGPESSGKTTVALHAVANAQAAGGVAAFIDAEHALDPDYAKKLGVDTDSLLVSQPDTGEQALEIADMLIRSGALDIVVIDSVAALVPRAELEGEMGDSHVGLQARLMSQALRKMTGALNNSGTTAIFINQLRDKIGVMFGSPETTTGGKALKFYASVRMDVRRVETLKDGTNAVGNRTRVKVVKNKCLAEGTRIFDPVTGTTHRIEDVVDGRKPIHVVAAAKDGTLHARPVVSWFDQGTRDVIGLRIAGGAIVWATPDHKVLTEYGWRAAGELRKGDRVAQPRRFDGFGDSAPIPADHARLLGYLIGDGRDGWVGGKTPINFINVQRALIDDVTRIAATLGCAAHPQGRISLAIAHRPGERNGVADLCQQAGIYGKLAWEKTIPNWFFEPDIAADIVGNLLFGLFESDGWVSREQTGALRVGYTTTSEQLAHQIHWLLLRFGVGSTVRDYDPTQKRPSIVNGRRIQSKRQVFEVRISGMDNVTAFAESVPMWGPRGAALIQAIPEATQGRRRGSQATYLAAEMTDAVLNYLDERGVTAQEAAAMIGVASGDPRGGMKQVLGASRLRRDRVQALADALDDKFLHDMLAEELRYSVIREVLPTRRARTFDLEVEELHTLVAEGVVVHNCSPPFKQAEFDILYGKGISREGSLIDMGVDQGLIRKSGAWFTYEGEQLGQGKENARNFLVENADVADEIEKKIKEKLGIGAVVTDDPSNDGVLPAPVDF

[6] = Fluorescence-based cell-based high throughput dose response assay for inhibitors of the interaction of nucleotide-binding oligomerization domain containing 2 (NOD2) and the receptor-interacting serine-threonine kinase 2 (RIPK2).; type: functional; conditions: Homo sapiens
[7] = Luminescence Cell-Based Dose Confirmation HTS to Identify Activators of 5'UTR Stem-Loop Driven Alpha-Synuclein mRNA Translation in H4 Neuroglioblastoma Cells. [Related pubchem assays: 1829 (Project Summary), 1814 (Primary HTS)]; type: functional
[8] = test system: H4; assay: Luminescence Cell-Based Dose Response HTS to Identify Activators of 5'UTR Stem-Loop Driven Prion Protein mRNA Translation in H4 Neuroglioblastoma Cells. [Related pubchem assays: 1829 (Project Summary), 1814 (Primary HTS)]; type: functional; conditions: Homo sapiens
[9] = Shn3 3'UTR reporter inhibitors, dose response, cell-based, Clone20 osteoblasts, firefly luciferase, cherry-picked (AID 624132); type: functional;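 further: firefly luciferase luminescence from reporter carrying the Shn3 3'UTR in osteoblasts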
[10] = test system: BJ; assay: cytotoxicity toward BJ-TERT-LT-ST fibroblasts, dose response, cell-based, RAS-independent, luminescence (AID 1935); type: functional; conditions: Homo sapiens;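 further: BJ fibroblasts immortalized with TERT plus LT and ST oncogenes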
[11] = inhibitors of control Renilla luciferase reporter, dose response, counter-screen for Shn3 3'UTR targeting project, Clone20-Shn3RL cells, dual-Glo, cherry-pick, set 2 (AID 720724); type: functional, cell-based; conditions: Dual-Go Shn3RL
[12] = biological target: T3, Beta Lactamase (Pseudomonas aeruginosa, UniProt Q932Y6); assay: beta-lactamase reporter inhibitor potency, dose response, artefact control for NOD2-RIPK2 interaction inhibitor project, BLA reporter cells, FRET fluorescence (AID 651552); type: functional, cell-based
T3 sequence (Q932Y6 whole entry): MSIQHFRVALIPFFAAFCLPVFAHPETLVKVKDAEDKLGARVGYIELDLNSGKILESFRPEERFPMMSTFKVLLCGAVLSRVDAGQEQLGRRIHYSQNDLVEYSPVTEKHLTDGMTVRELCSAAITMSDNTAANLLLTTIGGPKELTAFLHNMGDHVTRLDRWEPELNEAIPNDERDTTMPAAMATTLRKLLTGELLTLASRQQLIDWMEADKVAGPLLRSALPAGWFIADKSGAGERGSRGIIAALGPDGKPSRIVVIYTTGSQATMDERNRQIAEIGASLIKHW

[13] = reduction of endogenous Shn3 mRNA, dose response, qPCR, Clone20 cells, cherry-pick (AID 743415); type: functional, cell-based
[14] = test system: BJ; assay: cytotoxicity toward BJ-TERT fibroblasts, dose response, cell-based, RAS-independent, luminescence (AID 1933); type: functional; conditions: Homo sapiens
[15] = HepG2 cell cytotoxicity, dose response, cytotoxicity control for Shn3 inhibitor project, CellTiter-Glo, cherry-picked (AID 624134); type: functional, cell-based
[16] = biological target: T3, Beta Lactamase; assay: beta-lactamase reporter inhibitor potency, dose response, artefact control for TLR9-MyD88 binding inhibitor project, BLA reporter cells, FRET fluorescence (AID 588341); type: cell-based;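 further: cell based assay in CHO-K1 cells stably expressing beta-lactamase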
[17] = cytotoxicity toward DRD oncogenic fibroblasts, dose response, cell-based, non-viral oncogenic, luminescence (AID 1934); type: functional; conditions: Homo sapiens
[18] = test system: BJ; assay: cells; type: functional, cell-based; conditions: Homo sapiens
[19] = cytotoxicity in HEK-293T cells, dose response, cytotoxicity control for TCR NF-kB inhibitor project, luminescence, T-cell screen hits (AID 489026); type: functional, cell-based;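 further: cells exposed to compound about 14 hours before the viability readout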
[20] = control 3'UTR Renilla luciferase suppression, dose response, counter-screen for Shn3 inhibitor project, cell-based, Clone20-Shn3RL, cherry-picked (AID 624133); type: functional
[21] = test system: BJ; assay: cytotoxicity toward Ras-transformed BJeLR fibroblasts, dose response, cell-based, alamar blue fluorescence, cherrypicked samples (AID 2631); type: functional; conditions: Homo sapiens;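 further: confirmatory dose-response assay in RAS-dependent BJ fibroblasts engineered with TERT, LT and ST, with cytotoxicity read by fluorescence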
[22] = biological target: T4, Insulin-degrading enzyme (Homo sapiens, UniProt P14735); assay: activators of endogenous IDE in HEK cells, dose response, cell-based, fluorescence polarization (AID 588439); type: functional
T4 sequence (P14735 whole entry): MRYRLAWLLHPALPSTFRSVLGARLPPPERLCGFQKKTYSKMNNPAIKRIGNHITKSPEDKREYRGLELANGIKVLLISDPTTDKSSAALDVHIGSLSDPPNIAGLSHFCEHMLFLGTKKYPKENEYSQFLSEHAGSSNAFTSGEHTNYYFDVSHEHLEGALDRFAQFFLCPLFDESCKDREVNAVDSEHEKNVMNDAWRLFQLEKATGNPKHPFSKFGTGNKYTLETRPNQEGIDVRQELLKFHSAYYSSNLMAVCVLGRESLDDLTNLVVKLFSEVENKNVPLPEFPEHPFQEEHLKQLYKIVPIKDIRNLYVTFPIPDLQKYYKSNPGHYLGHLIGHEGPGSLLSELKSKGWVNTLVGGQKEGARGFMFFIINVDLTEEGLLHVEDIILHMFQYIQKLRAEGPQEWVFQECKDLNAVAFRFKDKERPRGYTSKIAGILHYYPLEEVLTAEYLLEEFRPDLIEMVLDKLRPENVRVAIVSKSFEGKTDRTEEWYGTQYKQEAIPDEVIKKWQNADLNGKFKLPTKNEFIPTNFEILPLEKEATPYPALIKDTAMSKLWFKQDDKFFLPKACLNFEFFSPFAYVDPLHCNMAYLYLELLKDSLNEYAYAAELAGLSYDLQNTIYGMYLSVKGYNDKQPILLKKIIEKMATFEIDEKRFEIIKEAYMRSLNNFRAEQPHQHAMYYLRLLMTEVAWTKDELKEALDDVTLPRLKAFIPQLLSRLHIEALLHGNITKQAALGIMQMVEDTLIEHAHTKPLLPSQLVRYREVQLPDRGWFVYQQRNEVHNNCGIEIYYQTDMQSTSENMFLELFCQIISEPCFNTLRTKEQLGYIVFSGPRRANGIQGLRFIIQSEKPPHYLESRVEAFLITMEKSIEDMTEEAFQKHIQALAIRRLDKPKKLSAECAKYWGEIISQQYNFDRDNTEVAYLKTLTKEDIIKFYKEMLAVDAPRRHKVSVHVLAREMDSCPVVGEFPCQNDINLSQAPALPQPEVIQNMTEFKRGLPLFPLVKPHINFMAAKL

[23] = test system: HEK293; assay: HEK cell cytotoxicity by LDH release, dose response, cytotoxicity control for IDE activator project, fluorescence, HEK cells (AID 588440); type: functional, cell-based; conditions: Homo sapiens;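 further: cytotoxicity by LDH release measuring loss of membrane integrity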
[24] = test system: HEK293; assay: optical interference in Abeta FP readout, dose response, artefact control for IDE activator project, biochemical, fluorescence polarization (AID 588442); type: functional, cell-based; conditions: Homo sapiens
[25] = biological target: T4, Insulin-degrading enzyme; assay: activators of recombinant IDE enzyme, dose response, counter-screen for IDE activator project, biochemical, fluorescence polarization (AID 588681)

CCOC(=O)C1CCN(S(=O)(=O)c2c(Cl)ccc3nonc23)CC1
EC50 [1]: > 120 µM (not active)
AC50 [2]: 1.97 µM (active)
AC50 [3]: 5.07 µM (active)
IC50 [4]: 2.42 µM (active)
EC50 [5]: 14.4 µM (active)
IC50 [6]: 1.12 µM (active)
EC50 [7]: > 120 µM (not active)
EC50 [8]: > 120 µM (not active)
AC50 [9]: 0.919 µM (active)
EC50 [10]: 2.84 µM (inconclusive)
AC50 [11]: 1.77 µM (active)
IC50 [12]: 26.8 µM (inactive)
AC50 [13]: 3.36 µM (active)
EC50 [14]: 2.73 µM (inconclusive)
AC50 [15]: 12.2 µM (active)
IC50 [16]: 21.2 µM (inactive)
EC50 [17]: 2.75 µM (active)
EC50 [18]: 6.08 µM (inconclusive)
IC50 [19]: > 80 µM (inactive)
AC50 [20]: 4.78 µM (active)
EC50 [21]: 0.318 µM (active)

CCN(CC(=O)Nc1ccc(NC(C)=O)cc1)C(=O)c1cc(CN2C(=O)c3ccccc3C2=O)ccc1OC
EC50 [22]: > 54.7 µM (inactive)
IC50 [23]: > 89.2 µM (inactive)
EC50 [24]: > 54.7 µM (inactive)
EC50 [25]: > 54.7 µM (inactive)
